What all share (assay type): in vivo
Test [1] relates to Beet Armyworm (Spodoptera exigua, LAPHEG). In words: Bioassays on Beet Armyworm (BAW), 128-well diet tray assay. As to conditions: Spodoptera exigua. In a few lines: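 Eight diet wells per compound were treated at 50 μg/cm^2 (acetone-water 90:10), dried, then infested with 1–5 second-instar larvae each. After five to seven days at 25 °C under 14:10 photoperiod, mortality was scored and averaged across wells.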

The test system of test [2] is Cabbage Looper (Trichoplusia ni, TRIPNI). The experiment in a line: Bioassays on Cabbage Looper (CL), 128-well diet tray assay. As to conditions: Trichoplusia ni. In a few lines:
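Activity is mean percent mortality over eight wells of second-instar larvae exposed to diet treated at 50 μg/cm^2 for 5–7 days at 25° C.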

Test [3] relates to Yellow Fever Mosquito (Aedes aegypti, AEDSAE). As to conditions: for YFM rating: Table ABC / ABC-DP rating. In a few lines:
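Compounds from 4000 ppm DMSO stocks were diluted in 90:10 water/acetone and dispensed into wells, then infested with about 1-day-old larvae in liver-powder water. Covered plates were held at room temperature for 3 days and each well was scored for mortality against a rating scale; six replicate plates per compound.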

Where [4] appears, read: Table ABC: Biological Results, species BAW, read-out: BAW.
Setting [5] is: Table ABC: Biological Results, species CL, read-out: CL.
The mark [6] stands for this setting: Table ABC: Biological Results, species YFM.
[7] abbreviates: Beet Armyworm, rating class, read-out: BAW.
The mark [8] stands for this setting: Cabbage Looper, rating class, read-out: CL.
Where [9] appears, read: Yellow Fever Mosquito, rating class.
Setting [10] is: Beet Armyworm, Table ABC / ABC-DP rating, read-out: BAW rating.
Setting [11] is: Cabbage Looper, Table ABC / ABC-DP rating, read-out: CL rating.

Like-named read-outs stand apart in the source and are kept apart here.

The record followed here is US20250228239A1, “MOLECULES HAVING PESTICIDAL UTILITY, AND INTERMEDIATES, COMPOSITIONS, AND PROCESSES, RELATED THERETO” (priority 2024, published 2025).

With `Cc1cc(Br)ccc1NC(=O)c1cc(NC(=O)[C@H]2[C@H](c3cc(Cl)cc(Cl)c3)C2(Cl)Cl)ccc1Cl` (relative stereo) [F1054, trans-N-(4-Bromo-2-methylphenyl)-2-chloro-5-(2,2-dichloro-3-(3,5-dichlorophenyl)cyclopropane-1-carboxamido)benzamide], the pest or weed control at 50 µg/cm2 in test [1] (setting [4]) and in test [2] (setting [5]) was 50 to 100% in each case. In addition, the YFM entry in test [3] (setting [6]) is recorded as “A (80–100)”.

For `O=C(Nc1ccc(F)c(NC(=O)C(F)F)c1F)c1cc(NC(=O)[C@H]2[C@H](c3ccc(Cl)cc3)C2(Cl)Cl)ccc1Cl` (relative stereo) [F1599, trans-2-Chloro-5-(2,2-dichloro-3-(4-chlorophenyl)cyclopropane-1-carboxamido)-N-(3-(2,2-difluoroacetamido)-2,4-difluorophenyl)benzamide], the pest or weed control at 50 µg/cm2 in test [1] (setting [7]) and in test [2] (setting [8]) was 50 to 100% in each case. Besides, the YFM entry in test [3] (setting [9]) is listed as “A (80–100)”.

`C=Cc1cc(NC(=O)c2cc(NC(=O)[C@H]3[C@H](c4cc(Cl)cc(Cl)c4)C3(Cl)Cl)ccc2Cl)ccc1F` (relative stereo) [F1311, trans-2-chloro-5-(2,2-dichloro-3-(3,5-dichlorophenyl)cyclopropane-1-carboxamido)-N-(4-fluoro-3-vinylphenyl)benzamide]: the pest or weed control at 50 µg/cm2 in test [1] (setting [4]) and in test [2] (setting [5]) was 50 to 100% each time. Further, the YFM result in test [3] (setting [6]) is “A (80–100)”.

Regarding `Cc1c(F)cc(NC(=O)[C@H]2[C@H](c3ccc(F)c(Cl)c3)C2(Cl)Cl)cc1C(=O)Nc1ccc(F)cc1` (relative stereo) [F1278, trans-5-(2,2-Dichloro-3-(3-chloro-4-fluorophenyl)cyclopropane-1-carboxamido)-3-fluoro-N-(4-fluorophenyl)-2-methylbenzamide], the pest or weed control at 50 µg/cm2 in test [1] (setting [4]) and in test [2] (setting [5]) was 50 to 100% in each case. The YFM result in test [3] (setting [6]) is “A (80–100)”.

With `CC(=O)Nc1cc(F)c(F)cc1NC(=O)c1cc(NC(=O)[C@H]2[C@H](c3cc(Cl)cc(Cl)c3)C2(Cl)Cl)ccc1Cl` (relative stereo) [F1634, trans-N-(2-Acetamido-4,5-difluorophenyl)-2-chloro-5-(2,2-dichloro-3-(3,5-dichlorophenyl)cyclopropane-1-carboxamido)benzamide], the pest or weed control at 50 µg/cm2 in test [1] (setting [7]) and in test [2] (setting [8]) was 50 to 100% in each case. Moreover, the YFM entry in test [3] (setting [9]) is on record as “B (More than 0 – Less than 80)”.

For `Nc1c(F)ccc(NC(=O)c2cc(NC(=O)[C@H]3[C@@H](c4cc(Cl)c(Cl)c(C(F)(F)F)c4)C3(Cl)Cl)ccc2Cl)c1F` (relative stereo) [F1150, cis-N-(3-Amino-2,4-difluorophenyl)-2-chloro-5-(2,2-dichloro-3-(3,4-dichloro-5-(trifluoromethyl)phenyl)cyclopropane-1-carboxamido)benzamide], the pest or weed control at 50 µg/cm2 in test [1] (setting [4]) and in test [2] (setting [5]) was 50 to 100% throughout. In addition, the YFM result in test [3] (setting [6]) is recorded as “A (80–100)”.

`O=C(CCCC(F)(F)F)Nc1c(F)ccc(NC(=O)c2cc(NC(=O)[C@H]3[C@H](c4ccc(F)c(C(F)(F)F)c4)C3(Cl)Cl)ccc2Cl)c1F` [F1830, 2-Chloro-5-((1R,3R)-2,2-dichloro-3-(4-fluoro-3-(trifluoromethyl)phenyl)cyclopropane-1-carboxamido)-N-(2,4-difluoro-3-(5,5,5-trifluoropentanamido)phenyl)benzamide]: the pest or weed control at 50 µg/cm2 in test [1] (setting [10]) and in test [2] (setting [11]) was 50 to 100% throughout. Further, the YFM rating entry in test [3] (Yellow Fever Mosquito) is listed as “A (80–100)”.

Turning to `CCOC(=O)C(F)(F)CNC(=O)c1cc(NC(=O)[C@H]2[C@H](c3cc(Cl)cc(Cl)c3)C2(Cl)Cl)cc(F)c1Cl` (relative stereo) [F2089, trans-Ethyl 3-(2-chloro-5-(2,2-dichloro-3-(3,5-dichlorophenyl)cyclopropane-1-carboxamido)-3-fluorobenzamido)-2,2-difluoropropanoate], the pest or weed control at 50 µg/cm2 in test [1] (setting [10]) and in test [2] (setting [11]) was 50 to 100% throughout. Further, the YFM rating entry in test [3] (Yellow Fever Mosquito) is listed as “A (80–100)”.

On to `CC(=O)Nc1cc(NC(=O)c2cc(NC(=O)[C@H]3[C@H](c4ccc(F)c(C(F)(F)F)c4)C3(Cl)Cl)ccc2F)c(F)cc1F` [F1559, N-(5-Acetamido-2,4-difluorophenyl)-5-((1R,3R)-2,2-dichloro-3-(4-fluoro-3-(trifluoromethyl)phenyl)cyclopropane-1-carboxamido)-2-fluorobenzamide], for which the pest or weed control at 50 µg/cm2 in test [1] (setting [7]) and in test [2] (setting [8]) was 50 to 100% throughout. For the same compound, in test [3] (setting [9]), the YFM entry is on record as “A (80–100)”.

Take `O=C(Nc1ccc(F)c(NC(=O)C(F)(F)F)c1F)c1cc(NC(=O)[C@H]2[C@H](c3cc(Cl)c(Cl)c(Cl)c3)C2(Cl)Cl)cc(F)c1F` [F1438, 5-((1R,3R)-2,2-Dichloro-3-(3,4,5-trichlorophenyl)cyclopropane-1-carboxamido)-N-(2,4-difluoro-3-(2,2,2-trifluoroacetamido)phenyl)-2,3-difluorobenzamide]: the pest or weed control at 50 µg/cm2 in test [1] (setting [7]) and in test [2] (setting [8]) was 50 to 100% in each case. In test [3] (setting [9]), the YFM result was “A (80–100)”.

Take `O=C(Nc1ccc(F)c(NC(=O)C(F)(F)C(F)(F)C(F)(F)F)c1F)c1cc(NC(=O)[C@H]2[C@H](c3cc(C(F)(F)F)cc(C(F)(F)F)c3)C2(Cl)Cl)ccc1Cl` (relative stereo) [F1825, trans-5-(3-(3,5-bis(Trifluoromethyl)phenyl)-2,2-dichlorocyclopropane-1-carboxamido)-2-chloro-N-(2,4-difluoro-3-(2,2,3,3,4,4,4-heptafluorobutanamido)phenyl)benzamide]: the pest or weed control at 50 µg/cm2 in test [1] (setting [10]) and in test [2] (setting [11]) was 50 to 100% each time. Besides, in test [3] (Yellow Fever Mosquito), the YFM rating entry is “A (80–100)”.

On to `Cc1c(F)c(NC(=O)c2cc(NC(=O)[C@H]3[C@H](c4ccc(F)c(C(F)(F)F)c4)C3(Cl)Cl)ccc2Cl)cc(NC(=O)C(F)F)c1F` [F1680, 2-Chloro-5-((1R,3R)-2,2-dichloro-3-(4-fluoro-3-(trifluoromethyl)phenyl)cyclopropane-1-carboxamido)-N-(5-(2,2-difluoroacetamido)-2,4-difluoro-3-methylphenyl)benzamide], for which the pest or weed control at 50 µg/cm2 in test [1] (setting [7]) and in test [2] (setting [8]) was 50 to 100% each time. The YFM result in test [3] (setting [9]) is recorded as “B (More than 0 – Less than 80)”.

Take `CCNC(=O)c1cc(NC(=O)[C@H]2[C@H](c3ccc(F)c(Cl)c3)C2(Cl)Cl)cc(C)c1F` (relative stereo) [F2029, trans-5-(2,2-Dichloro-3-(3-chloro-4-fluorophenyl)cyclopropane-1-carboxamido)-N-ethyl-2-fluoro-3-methylbenzamide]: the pest or weed control at 50 µg/cm2 in test [1] (setting [10]) and in test [2] (setting [11]) was 50 to 100% each time. Besides, the YFM rating result in test [3] (Yellow Fever Mosquito) is “A (80–100)”.

In the case of `O=C(NNC(=O)C(F)(F)F)c1cc(NC(=O)[C@H]2[C@H](c3cc(Cl)cc(Cl)c3)C2(Cl)Cl)ccc1Cl` (relative stereo) [F2515, trans-2,2-Dichloro-N-(4-chloro-3-(2-(2,2,2-trifluoroacetyl)hydrazine-1-carbonyl)phenyl)-3-(3,5-dichlorophenyl)cyclopropane-1-carboxamide], the pest or weed control at 50 µg/cm2 in test [1] (setting [10]) and in test [2] (setting [11]) was 50 to 100% in each case. The YFM rating entry in test [3] (Yellow Fever Mosquito) was “A (80–100)”.

As to `CC(OC(F)(F)F)C(=O)Nc1c(F)ccc(NC(=O)c2cc(NC(=O)[C@H]3[C@H](c4ccc(F)c(Br)c4)C3(Cl)Cl)ccc2Cl)c1F` (stereo partly drawn) [F1781, 5-((1R,3R)-3-(3-Bromo-4-fluorophenyl)-2,2-dichlorocyclopropane-1-carboxamido)-2-chloro-N-(2,4-difluoro-3-(2-(trifluoromethoxy)propanamido)phenyl)benzamide], the pest or weed control at 50 µg/cm2 in test [1] (setting [10]) and in test [2] (setting [11]) was 50 to 100% throughout. Also, the YFM rating entry in test [3] (Yellow Fever Mosquito) is listed as “A (80–100)”.

Turning to `Nc1c(F)ccc(NC(=O)c2cc(NC(=O)[C@H]3[C@H](c4ccc(Cl)c(C(F)F)c4)C3(Cl)Cl)ccc2Cl)c1F` (relative stereo) [F1037, trans-N-(3-Amino-2,4-difluorophenyl)-2-chloro-5-(2,2-dichloro-3-(4-chloro-3-(difluoromethyl)phenyl)cyclopropane-1-carboxamido)benzamide], the pest or weed control at 50 µg/cm2 in test [1] (setting [4]) and in test [2] (setting [5]) was 50 to 100% throughout. Further, the YFM entry in test [3] (setting [6]) was “A (80–100)”.

On to `O=C(Nc1ccc(F)cc1F)c1cc(NC(=O)[C@H]2[C@@H](c3cc(F)c(Cl)c(Cl)c3)C2(Cl)Cl)ccc1Cl` (relative stereo) [F1025, cis-2-Chloro-5-(2,2-dichloro-3-(3,4-dichloro-5-fluorophenyl)cyclopropane-1-carboxamido)-N-(2,4-difluorophenyl)benzamide], for which the pest or weed control at 50 µg/cm2 in test [1] (setting [4]) and in test [2] (setting [5]) was 50 to 100% throughout. For the same compound, in test [3] (setting [6]), the YFM entry was “A (80–100)”.
